Data published in ChEMBL document CHEMBL3227989, “Coenzyme--substrate adducts as inhibitors of mouse liver 3,4-dihydroxyphenylalanine decarboxylase” (J Med Chem, 1979).

Columns and labels:
[1] = target: T1, Aromatic-L-amino-acid decarboxylase (Mus musculus) (UniProt O88533); experiment: Inhibition of ICR Swiss mouse liver dopa decarboxylase at 2 X 10^-3 M after 15 mins
T1 sequence (whole entry): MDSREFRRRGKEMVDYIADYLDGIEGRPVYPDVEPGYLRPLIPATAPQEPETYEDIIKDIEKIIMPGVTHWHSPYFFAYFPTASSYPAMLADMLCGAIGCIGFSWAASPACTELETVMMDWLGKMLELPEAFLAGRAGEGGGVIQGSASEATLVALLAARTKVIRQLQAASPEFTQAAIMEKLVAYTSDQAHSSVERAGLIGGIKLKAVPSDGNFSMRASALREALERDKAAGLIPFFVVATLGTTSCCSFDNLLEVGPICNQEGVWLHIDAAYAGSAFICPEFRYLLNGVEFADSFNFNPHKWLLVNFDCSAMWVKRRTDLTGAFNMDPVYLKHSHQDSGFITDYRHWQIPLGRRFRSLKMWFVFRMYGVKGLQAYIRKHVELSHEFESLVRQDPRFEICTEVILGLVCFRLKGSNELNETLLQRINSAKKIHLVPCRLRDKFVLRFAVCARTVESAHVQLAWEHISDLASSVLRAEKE

[2] = target: T1, Aromatic-L-amino-acid decarboxylase (Mus musculus); experiment: Inhibition of ICR Swiss mouse liver dopa decarboxylase at 2 X 10^-4 M after 15 mins
[3] = target: T1, Aromatic-L-amino-acid decarboxylase (Mus musculus); experiment: Inhibition of ICR Swiss mouse liver dopa decarboxylase at 10^-3 M after 15 mins
[4] = target: T1, Aromatic-L-amino-acid decarboxylase (Mus musculus); experiment: Inhibition of ICR Swiss mouse liver dopa decarboxylase at 10^-4 M after 15 mins
[5] = target: T1, Aromatic-L-amino-acid decarboxylase (Mus musculus); experiment: Inhibition of ICR Swiss mouse liver dopa decarboxylase at 10^-5 M after 15 mins
[6] = target: T2, Aromatic-L-amino-acid decarboxylase (Mus musculus, UniProt O88533); experiment: Inhibition of ICR Swiss mouse liver dopa decarboxylase after 15 mins
T2 sequence (O88533 whole entry): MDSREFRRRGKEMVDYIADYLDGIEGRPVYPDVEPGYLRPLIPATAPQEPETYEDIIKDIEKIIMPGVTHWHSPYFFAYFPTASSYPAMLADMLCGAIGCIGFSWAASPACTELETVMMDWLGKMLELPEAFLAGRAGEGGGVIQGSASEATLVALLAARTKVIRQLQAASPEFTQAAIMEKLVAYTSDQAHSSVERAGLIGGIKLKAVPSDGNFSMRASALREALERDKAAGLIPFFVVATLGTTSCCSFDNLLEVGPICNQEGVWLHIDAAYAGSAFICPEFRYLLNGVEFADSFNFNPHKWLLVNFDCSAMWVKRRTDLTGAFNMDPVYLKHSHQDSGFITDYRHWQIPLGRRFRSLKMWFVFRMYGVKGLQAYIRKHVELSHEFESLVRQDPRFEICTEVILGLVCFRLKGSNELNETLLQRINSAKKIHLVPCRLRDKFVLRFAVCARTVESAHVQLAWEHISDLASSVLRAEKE

[7] = target: T1, Aromatic-L-amino-acid decarboxylase (Mus musculus); experiment: Inhibition of ICR Swiss mouse liver dopa decarboxylase at 2 X 10^-5 M after 15 mins
[8] = compound: Cc1ncc(COP(=O)(O)O)c(CN[C@@H](Cc2ccc(O)c(O)c2)C(=O)O)c1O; experiment: Inhibition of pig liver dopa decarboxylase; conditions: Sus scrofa

## Cc1cnc(C)c(O)c1CNC(Cc1ccc(O)c(O)c1)C(=O)O (racemic)
[1]
  inhibition: 50%
[2]
  inhibition: 15%

## Cc1ncc(COP(=O)(O)O)c(C2NC(C(=O)O)Cc3cc(O)c(O)cc32)c1O (racemic)
[3]
  inhibition: < 10%

## Cc1ncc(COP(=O)(O)O)c(CN[C@@H](Cc2ccccc2)C(=O)O)c1O
[1]
  inhibition: 85%
[4]
  inhibition: 57%
[3]
  inhibition: 83%
[5]
  inhibition: 17%

## Cc1ncc(COP(=O)(O)O)c(CN[C@@H](Cc2ccc(O)cc2)C(=O)O)c1O
[6]
  IC50: 70 µM

## Cc1ncc(COP(=O)(O)O)c(CNC(Cc2ccccc2O)C(=O)O)c1O (racemic)
[1]
  inhibition: 62%
[7]
  inhibition: 53%

## Cc1ncc(COP(=O)(O)O)c(CNC(Cc2ccc(O)c(O)c2)C(=O)O)c1O (racemic)
[7]
  inhibition: 63%

## Cc1ncc(COP(=O)(O)O)c(CN[C@@H](Cc2ccc(O)c(O)c2)C(=O)O)c1O
[6]
  IC50: 10 µM

B1: Aromatic-L-amino-acid decarboxylase (Sus scrofa), P80041 (protein)
chain: MNASDFRRRGKEMVDYMADYLEGIEGRQVYPDVQPGYLRPLIPATAPQEPDTFEDILQDVEKIIMPGVTHWHSPYFFAYFPTASSYPAMLADMLCGAIGCIGFSWAASPACTELETVMMDWLGKMLQLPEAFLAGEAGEGGGVIQGSASEATLVALLAARTKVVRRLQAASPGLTQGAVLEKLVAYASDQAHSSVERAGLIGGVKLKAIPSDGKFAMRASALQEALERDKAAGLIPFFVVATLGTTSCCSFDNLLEVGPICHEEDIWLHVDAAYAGSAFICPEFRHLLNGVEFADSFNFNPHKWLLVNFDCSAMWVKRRTDLTGAFKLDPVYLKHSHQGSGLITDYRHWQLPLGRRFRSLKMWFVFRMYGVKGLQAYIRKHVQLSHEFEAFVLQDPRFEVCAEVTLGLVCFRLKGSDGLNEALLERINSARKIHLVPCRLRGQFVLRFAICSRKVESGHVRLAWEHIRGLAAELLAAEEGKAEIKS
[8]
  Km: 190 µM
